According to paper PMC11360041 (ACS Omega, 2024):

Key:
Bipolaris maydis = type: cell-based; conditions: read-out: Inhibition rate, Bm
Botrytis cinerea = type: cell-based; conditions: read-out: Inhibition rate, Bc
Rhizoctonia solani = type: cell-based; conditions: read-out: Inhibition rate, Rs
TMV = experiment: Inactivation effect of compounds against TMV in vivo; design: species or system tobacco mosaic virus; conditions: Tobacco mosaic virus, read-out: relative inhibition rate (%) inactive effect
Phytophthora capsici = type: cell-based; conditions: read-out: Inhibition rate, Pc
Alternaria solani = type: cell-based; conditions: read-out: Inhibition rate, As
Physalospora piricola = type: cell-based; conditions: read-out: Inhibition rate, Pp, 50 mg/L, Physalospora piricola
[1] = tested on: Fusarium oxysporium f. sp. cucumeris; type: cell-based; conditions: read-out: Inhibition rate, Fc
Sclerotinia sclerotiorum = type: cell-based; conditions: read-out: Inhibition rate, Ss
Fusarium graminearum = experiment: microbe, parasite or virus in culture; type: cell-based; conditions: read-out: Inhibition rate, Fg
watermelon anthracnose = experiment: organism not typed; type: cell-based; conditions: read-out: Inhibition rate, Wa

Row | Structure (SMILES) | inhibition at 50 µg/mL (Bipolaris maydis) [%] | inhibition at 50 µg/mL (Botrytis cinerea) [%] | inhibition at 50 µg/mL (Rhizoctonia solani) [%] | inhibition at 100 µg/mL (TMV) [%] | inhibition at 500 µg/mL (TMV) [%] | inhibition at 50 µg/mL (Phytophthora capsici) [%] | inhibition at 50 µg/mL (Alternaria solani) [%] | inhibition at 50 µg/mL (Physalospora piricola) [%] | inhibition at 50 µg/mL [1] [%] | inhibition at 50 µg/mL (Sclerotinia sclerotiorum) [%] | inhibition at 50 µg/mL (Fusarium graminearum) [%] | inhibition at 50 µg/mL (watermelon anthracnose) [%]
1 | CSc1ccc(C=NNC(=O)Cn2ccc(=O)c3ccccc32)cc1 [Compound 10] | 13.3 ± 0.9 | 14.6 ± 1.2 | 3.6 ± 1.1 | 0 | 15.4 ± 2 | 23.8 ± 1.6 | 30.8 ± 2.1 | 58.8 ± 3.2 | 12.2 ± 1.3 | 7.3 ± 1.4 | 2.4 ± 0.6 | 14 ± 1.7
2 | O=C(Cn1ccc(=O)c2ccccc21)NN=Cc1ccc(-n2cccn2)cc1 [Compound 9] | 15.6 ± 2.1 | 25 ± 1.5 | 35.7 ± 2.2 | 5.1 ± 0.8 | 38.1 ± 3.2 | 14.3 ± 1.1 | 38.5 ± 1.3 | 27.9 ± 1.2 | 18.4 ± 0.7 | 12.2 ± 1.8 | 9.5 ± 0.5 | 14 ± 1.5
3 | COc1ccc(C=NNC(=O)Cn2ccc(=O)c3ccccc32)cc1OC [Compound 5] | 11.1 ± 0.7 | 18.8 ± 1.9 | 12.5 ± 1.4 | 0 | 11.3 ± 3.2 | 14.3 ± 0.9 | 30.8 ± 2.1 | 22.1 ± 1.5 | 16.3 ± 1.3 | 24.4 ± 1.1 | 14.3 ± 1.5 | 16.3 ± 1.2
4 | O=C(Cn1ccc(=O)c2ccccc21)NN=Cc1ccco1 [Compound 20] | 20 ± 1.1 | 20.8 ± 1.3 | 35.7 ± 1.8 | 0 | 29.7 ± 3.6 | 14.3 ± 1.1 | 38.5 ± 0.5 | 39.7 ± 1.3 | 16.3 ± 2 | 36.6 ± 1.7 | 14.3 ± 1.4 | 16.3 ± 1.6
5 | O=C(Cn1ccc(=O)c2ccccc21)NN=Cc1ccc(Br)cc1 [Compound 14] | 4.4 ± 0.6 | 20.8 ± 2.1 | 1.8 ± 0.7 | 0 | 31.7 ± 2.5 | 21.4 ± 1.8 | 23.1 ± 1.5 | 32.4 ± 2.3 | 22.4 ± 1.3 | 2.4 ± 0.4 | 2.4 ± 0.6 | 18.6 ± 1.7
6 | CCOC(=O)Cn1ccc(=O)c2ccccc21 [Compound B, (4-Oxo-4H-quinolin-1-yl)-acetic Acid Ethyl Ester] | – | – | – | 0 | 32.1 ± 1.6 | – | – | – | – | – | – | –
7 | O=C(Cn1ccc(=O)c2ccccc21)NN=Cc1ccccc1 [Compound 1] | 15.6 ± 1.7 | 33.3 ± 1.6 | 14.3 ± 1.3 | 0 | 29.3 ± 1.4 | 21.4 ± 1.1 | 30.8 ± 2.3 | 16.2 ± 0.5 | 22.4 ± 1.9 | 19.5 ± 0.7 | 14.3 ± 1.2 | 16.3 ± 1.3
8 | O=C(Cn1ccc(=O)c2ccccc21)NN=Cc1ccccc1[N+](=O)[O-] [Compound 16] | 13.3 ± 1.5 | 20.8 ± 1.2 | 35.7 ± 1.5 | 0 | 14.6 ± 4 | 14.3 ± 0.7 | 30.8 ± 1.4 | – | 18.4 ± 1.3 | 24.4 ± 1.1 | 23.8 ± 1.7 | 23.3 ± 1.6
9 | CN(C)c1ccc(C=NNC(=O)Cn2ccc(=O)c3ccccc32)cc1 [Compound 8] | 13.3 ± 1.4 | 25 ± 1.2 | 35.7 ± 2.1 | 0 | 28.1 ± 1.3 | 14.3 ± 1.8 | 30.8 ± 2.3 | 29.4 ± 2.3 | 16.3 ± 1.6 | 12.2 ± 1.3 | 23.8 ± 1.9 | 16.3 ± 1.7
10 | N#Cc1c(Cl)c(Cl)c(Cl)c(C#N)c1Cl [chlorothalonil, reference compound] | 86 ± 1.2 | 100 | < 50 | – | – | 73 ± 1.3 | 100 | 91 ± 1.3 | 100 | < 50 | 73 ± 0.9 | 100
11 | CC(C)(C)c1ccc(C=NNC(=O)Cn2ccc(=O)c3ccccc32)cc1 [Compound 3] | 8.9 ± 0.7 | 29.2 ± 1.7 | 17.9 ± 1.8 | 0 | 24.1 ± 1 | 23.8 ± 1.5 | 30.8 ± 2.3 | 35.3 ± 2.1 | 10.2 ± 1.6 | 22 ± 1.9 | 16.7 ± 1.3 | 16.3 ± 1.3
12 | Cc1ccc(C=NNC(=O)Cn2ccc(=O)c3ccccc32)cc1 [Compound 2] | 11.1 ± 2.1 | 25 ± 1.5 | 17.9 ± 1.7 | 0 | 26.7 ± 3 | 26.2 ± 1.8 | 30.8 ± 1.6 | 17.6 ± 1.4 | 28.6 ± 2.3 | 12.2 ± 1.2 | 14.3 ± 1.3 | 14 ± 1.3
13 | COC(=O)Nc1nc2ccccc2[nH]1 [carbendazim, reference compound] | – | 86 ± 1.4 | 100 | – | – | – | 98 ± 1.4 | 96 ± 1.2 | – | 100 | 29 ± 1.7 | 100
14 | O=C(Cn1ccc(=O)c2ccccc21)NN=Cc1cscn1 [Compound 22] | 8.9 ± 0.8 | 25 ± 2.1 | 26.8 ± 1.1 | 0 | 23.9 ± 1.1 | 26.2 ± 1.5 | 7.7 ± 1.2 | 32.4 ± 1.3 | 12.2 ± 1.6 | 7.3 ± 0.9 | 2.4 ± 0.5 | 14 ± 1.7
15 | O=C(Cn1ccc(=O)c2ccccc21)NN=Cc1cccs1 [Compound 21] | 17.8 ± 1.2 | 31.3 ± 2.1 | 35.7 ± 1.5 | 0 | 12.3 ± 1.7 | 26.2 ± 2.3 | 38.5 ± 1.3 | 76.5 ± 2.7 | 12.2 ± 1.6 | 17.1 ± 1.7 | 9.5 ± 1.4 | 14 ± 0.7
16 | O=C(Cn1ccc(=O)c2ccccc21)NN=Cc1ccc(F)cc1 [Compound 12] | 15.6 ± 1.7 | 25 ± 1.4 | 32.1 ± 2.1 | 0 | 27.4 ± 3.9 | 14.3 ± 1.6 | 23.1 ± 1.1 | – | 16.3 ± 1.5 | 7.3 ± 1.2 | 21.4 ± 1.4 | 16.3 ± 1.6
